30 molecules from US8846947B2, “Benzimidazoles and related analogs as sirtuin modulators” (GlaxoSmithKline LLC, priority 2008, dated 2014) can be followed below.

Each structure is given as a SMILES string. Where two headings read alike, the source gives them in different places.

The target of this assay is T1, SIRT1 (Homo sapiens, UniProt Q96EB6).
T1 sequence (Q96EB6 1-747): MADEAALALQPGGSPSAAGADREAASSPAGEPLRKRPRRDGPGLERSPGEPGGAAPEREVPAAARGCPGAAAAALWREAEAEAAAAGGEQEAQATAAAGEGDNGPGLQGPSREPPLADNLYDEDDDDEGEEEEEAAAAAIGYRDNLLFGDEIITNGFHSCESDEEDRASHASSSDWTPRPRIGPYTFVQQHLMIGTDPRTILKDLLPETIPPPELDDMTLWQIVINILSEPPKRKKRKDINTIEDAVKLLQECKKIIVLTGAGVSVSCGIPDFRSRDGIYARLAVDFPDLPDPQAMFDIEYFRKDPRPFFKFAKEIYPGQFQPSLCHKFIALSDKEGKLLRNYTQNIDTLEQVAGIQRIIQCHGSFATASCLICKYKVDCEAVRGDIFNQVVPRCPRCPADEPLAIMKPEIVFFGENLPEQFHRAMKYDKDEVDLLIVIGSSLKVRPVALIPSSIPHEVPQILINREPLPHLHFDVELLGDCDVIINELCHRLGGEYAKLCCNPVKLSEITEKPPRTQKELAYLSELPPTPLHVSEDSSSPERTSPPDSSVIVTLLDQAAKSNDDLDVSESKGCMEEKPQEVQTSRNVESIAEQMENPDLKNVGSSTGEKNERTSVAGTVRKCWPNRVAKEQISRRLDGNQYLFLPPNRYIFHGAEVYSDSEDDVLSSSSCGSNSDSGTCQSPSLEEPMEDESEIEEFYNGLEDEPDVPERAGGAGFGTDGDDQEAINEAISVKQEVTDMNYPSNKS
Briefly: Mass spectrometry based SIRT1 deacetylase activation assay (acetylated p53-derived peptide substrate). The class given is biochemical.

Where [1] appears, read: 0.5 μM peptide substrate, 120 μM βNAD+, 10 nM SIRT1, 25 min at 25° C.
[2] abbreviates: 0.5 μM peptide substrate, 120 μM βNAD+, 10 nM SIRT1, 25 min at 25° C., read-out: EC1.5.
Setting [3] is: 0.5 μM peptide substrate, 120 μM βNAD+, 10 nM SIRT1, 25 minutes at 25° C.

Take `O=C(Nc1ccccn1)c1cccc2[nH]c(-c3ccccc3C(F)F)nc12` [Compound 516]: the “Fold Act. (percent maximum fold activation)” value under setting [1] was “A (Fold activation >200%)”. Besides, the EC1.5 under setting [2] is less than 1000 nM.
In the case of `Cc1nc(NC(=O)c2cccc3[nH]c(-c4ccnn4-c4ccccc4)nc23)sc1C` [Compound 395], the EC1.5 entry is “A (EC1.5<1.0 uM)” and the “Fold Act. (percent maximum fold activation)” value is reported as “A (Fold activation >200%)”.
In the same order, the values of `O=C(Nc1nccs1)c1cccc2[nH]c(-c3cccc(-c4ccccc4)c3)nc12` [Compound 222] are “C (EC1.5 >25 uM)” and “B (Fold Activation <200%)”.
For `O=C(Nc1cccc2[nH]c(-c3ccccc3C(F)(F)F)nc12)c1ccccn1` [Compound 364], in that order: “B (EC1.5 1-25 uM)” and “A (Fold activation >200%)”.
For `O=C(Nc1nccs1)c1cc(F)cc2nc(-c3ccc(Cl)cc3C(F)F)[nH]c12` [Compound 821], under setting [3], the EC1.5 result is on record as “A (EC1.5<1.0 uM)” and the “Fold Act. (percent maximum fold activation)” value was “A (Fold activation >200%)”.
In the same order, the values of `O=C(Nc1cccc(OC[C@@H](O)CO)c1)c1cccc2[nH]c(-c3ccccc3C(F)F)nc12` [Compound 700] are “A (EC1.5<1.0 uM)” and “A (Fold activation >200%)”.
For `O=C(Nc1cccc(CN2CCCC2)n1)c1cccc2[nH]c(-c3ccccc3C(F)(F)F)nc12` [Compound 620, N-(6-(pyrrolidin-1-ylmethyl)pyridin-2-yl)-2-(2-(trifluoromethyl)phenyl)-1H-benzo[d]imidazole-4-carboxamide], in that order: “A (EC1.5<1.0 uM)” and “A (Fold activation >200%)”.
As for `O=C(Nc1cccnc1)c1cccc2[nH]c(-c3cccc(CN4CCCC4)c3)nc12` [Compound 352], the EC1.5 entry is “B (EC1.5 1-25 uM)” and the “Fold Act. (percent maximum fold activation)” value is listed as “A (Fold activation >200%)”.
On to `FC(F)(F)c1ccccc1-c1nc2c(Nc3ccccn3)cccc2[nH]1` [Compound 582], for which, under setting [1], the “Fold Act. (percent maximum fold activation)” value is recorded as “B (Fold Activation <200%)”. Moreover, the EC1.5 under setting [2] was greater than 25000 nM.
Turning to `COCCN1CCN(c2cccc(-c3nc4c(C(=O)Nc5nccs5)cccc4[nH]3)c2)CC1` [Compound 710], under setting [3], the EC1.5 result is reported as “A (EC1.5<1.0 uM)” and the “Fold Act. (percent maximum fold activation)” value is given as “A (Fold activation >200%)”.
Take `O=C(Nc1cccc2[nH]c(-c3cc(F)ccc3C(F)(F)F)nc12)c1ccccn1` [Compound 385]: the EC1.5 entry is “B (EC1.5 1-25 uM)” and the “Fold Act. (percent maximum fold activation)” value is reported as “A (Fold activation >200%)”.
As for `Cc1cc(C)nc(NC(=O)c2cccc3[nH]c(-c4ccnn4-c4ccccc4)nc23)c1` [Compound 422], the “Fold Act. (percent maximum fold activation)” value under setting [1] was “A (Fold activation >200%)”. Under setting [2], the EC1.5 was less than 1000 nM.
Regarding `O=C(Nc1cccc(N2CCOCC2)n1)c1cccc2[nH]c(-c3ccc(Cl)cc3C(F)(F)F)nc12` [Compound 868, 2-(4-chloro-2-(trifluoromethyl)phenyl)-N-(6-morpholinopyridin-2-yl)-1H-benzo[d]imidazole-4-carboxamide], under setting [3], the EC1.5 result was “A (EC1.5<1.0 uM)” and the “Fold Act. (percent maximum fold activation)” value is “A (Fold activation >200%)”.
On to `O=C(Nc1cccnc1)c1cc(N2CCOCC2)cc2[nH]c(-c3cc(F)ccc3C(F)F)nc12` [Compound 767], for which, under setting [3], the EC1.5 result is reported as “A (EC1.5<1.0 uM)” and the “Fold Act. (percent maximum fold activation)” value is on record as “A (Fold activation >200%)”.
For `O=C(Nc1nccs1)c1cccc2[nH]c(-c3ccc(-c4nnn[nH]4)cc3)nc12` [Compound 348], the EC1.5 entry is given as “A (EC1.5<1.0 uM)” and the “Fold Act. (percent maximum fold activation)” value is reported as “A (Fold activation >200%)”.
Take `O=C(Nc1ccccn1)c1cncc2[nH]c(-c3ccc(OC[C@@H](O)CO)cc3C(F)(F)F)nc12` [Compound 760]: under setting [3], the EC1.5 entry was “A (EC1.5<1.0 uM)” and the “Fold Act. (percent maximum fold activation)” value is reported as “A (Fold activation >200%)”.
As for `Cc1nc(-c2ccccc2)c(-c2nc3c(C(=O)Nc4nccs4)cccc3[nH]2)s1` [Compound 368], the EC1.5 result is given as “A (EC1.5<1.0 uM)” and the “Fold Act. (percent maximum fold activation)” value was “A (Fold activation >200%)”.
As to `O=C(Nc1ccccn1)c1cccc2[nH]c(-c3cc(F)ccc3OCCN3CCOCC3)nc12` [Compound 584], the “Fold Act. (percent maximum fold activation)” value under setting [1] is listed as “A (Fold activation >200%)”. Under setting [2], the EC1.5 lay in the range of 1000 to 25000 nM.
Regarding `O=C(Nc1ccccn1)c1cc(N2CCOCC2)cc2[nH]c(-c3ccccc3C(F)(F)F)nc12` [Compound 629], under setting [3], the EC1.5 entry is recorded as “A (EC1.5<1.0 uM)” and the “Fold Act. (percent maximum fold activation)” value is listed as “A (Fold activation >200%)”.
Regarding `O=C(Nc1ccccn1)c1cccc2[nH]c(-c3cc(F)ccc3C(F)F)nc12` [Compound 513], the “Fold Act. (percent maximum fold activation)” value under setting [1] is recorded as “A (Fold activation >200%)”. Moreover, the EC1.5 under setting [2] is less than 1000 nM.
With `O=C(Nc1nccs1)c1cccc2[nH]c(-c3cccc(C(F)(F)F)c3F)nc12` [Compound 217], the EC1.5 entry was “C (EC1.5 >25 uM)” and the “Fold Act. (percent maximum fold activation)” value is reported as “B (Fold Activation <200%)”.
Regarding `O=C(Nc1ccccn1)c1cccc2[nH]c(-c3cc(F)ccc3C(F)(F)F)nc12` [Compound 323], the EC1.5 entry is recorded as “A (EC1.5<1.0 uM)” and the “Fold Act. (percent maximum fold activation)” value is recorded as “A (Fold activation >200%)”.
In the case of `Cc1nc(C)c(-c2nc3c(C(=O)Nc4cccc(CN5CCOCC5)n4)cccc3[nH]2)s1` [Compound 847], under setting [3], the EC1.5 result is given as “A (EC1.5<1.0 uM)” and the “Fold Act. (percent maximum fold activation)” value is “A (Fold activation >200%)”.
In the same order, the values of `O=C(Nc1ccccn1)c1cc(F)cc2[nH]c(-c3ccc(OC[C@@H](O)CO)cc3C(F)F)nc12` [Compound 840] are “A (EC1.5<1.0 uM)” and “A (Fold activation >200%)”.
In the same order, the values of `O=C(Nc1ccc(CN2CCCC2)cc1)c1cccc2[nH]c(-c3ccc(F)cc3C(F)(F)F)nc12` [Compound 813] are “A (EC1.5<1.0 uM)” and “A (Fold activation >200%)”.
As for `CC1(C)CN(c2ccc(C(F)(F)F)c(-c3nc4c(C(=O)Nc5nccs5)cccc4[nH]3)c2)CCO1` [Compound 708], under setting [3], the EC1.5 entry is reported as “A (EC1.5<1.0 uM)” and the “Fold Act. (percent maximum fold activation)” value was “A (Fold activation >200%)”.
Consider `Cc1cnc(NC(=O)c2cccc3[nH]c(-c4ccc(OC[C@@H](O)CO)cc4C(F)F)nc23)s1` [Compound 595], for which the “Fold Act. (percent maximum fold activation)” value under setting [1] is “A (Fold activation >200%)”. Under setting [2], the EC1.5 is less than 1000 nM.
Turning to `O=C(Nc1cccnn1)c1cncc2[nH]c(-c3ccc(N4CCCC4)cc3C(F)F)nc12` [Compound 802], under setting [3], the EC1.5 entry is reported as “A (EC1.5<1.0 uM)” and the “Fold Act. (percent maximum fold activation)” value was “A (Fold activation >200%)”.
On to `O=C(Nc1ccccn1)c1cccc2[nH]c(-c3cccc(N4CCOCC4)c3)nc12` [Compound 289], for which the EC1.5 result was “A (EC1.5<1.0 uM)” and the “Fold Act. (percent maximum fold activation)” value is given as “A (Fold activation >200%)”.
As for `O=C(Nc1nc2ccccc2s1)c1cccc2[nH]c(-c3cccc(C(F)(F)F)c3)nc12` [Compound 284], the EC1.5 result is “B (EC1.5 1-25 uM)” and the “Fold Act. (percent maximum fold activation)” value is listed as “A (Fold activation >200%)”.
